Measurements published in ChEMBL document CHEMBL1134801, “Dibasic inhibitors of human mast cell tryptase. Part 3: identification of a series of potent and selective inhibitors containing the benzamidine functionality” (Bioorg Med Chem Lett, 2001).

Key:
Plasminogen = Plasminogen (Homo sapiens, UniProt P00747); assay: Inhibition plasmin in human mast cells; format: cell-based
Prothrombin = Prothrombin (Homo sapiens, UniProt P00734); assay: Inhibition of thrombin in human mast cells; format: cell-based
Trypsin = Trypsin (Homo sapiens, UniProt P07477+P07478+P35030); assay: Inhibition of trypsin in human mast cells; format: cell-based
Tryptase = Tryptase (Homo sapiens, UniProt Q9BZJ3+Q15661+Q9NRR2); assay: Inhibition of Tryptase in human mast cells; format: cell-based
[1] = Michaelis-Menten constant was determined for the compound after incubation with plasma amine oxidase; format: ADME, cell-free

Chain of Plasminogen (P00747 97-580 limits assumed): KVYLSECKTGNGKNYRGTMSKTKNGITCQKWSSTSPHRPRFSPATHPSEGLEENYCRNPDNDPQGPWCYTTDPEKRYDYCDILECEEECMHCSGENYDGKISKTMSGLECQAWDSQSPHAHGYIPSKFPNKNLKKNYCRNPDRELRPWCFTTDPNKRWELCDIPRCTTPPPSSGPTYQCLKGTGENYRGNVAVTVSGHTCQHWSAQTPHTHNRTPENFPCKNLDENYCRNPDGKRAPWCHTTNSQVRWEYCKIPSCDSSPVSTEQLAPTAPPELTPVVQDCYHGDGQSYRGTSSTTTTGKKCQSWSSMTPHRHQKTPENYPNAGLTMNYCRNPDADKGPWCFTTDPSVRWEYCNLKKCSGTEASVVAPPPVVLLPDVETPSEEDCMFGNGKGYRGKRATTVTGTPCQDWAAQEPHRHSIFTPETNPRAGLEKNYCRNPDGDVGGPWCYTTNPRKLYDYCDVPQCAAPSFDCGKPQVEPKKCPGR
Chain of Plasminogen (P00747 581-810 limits assumed): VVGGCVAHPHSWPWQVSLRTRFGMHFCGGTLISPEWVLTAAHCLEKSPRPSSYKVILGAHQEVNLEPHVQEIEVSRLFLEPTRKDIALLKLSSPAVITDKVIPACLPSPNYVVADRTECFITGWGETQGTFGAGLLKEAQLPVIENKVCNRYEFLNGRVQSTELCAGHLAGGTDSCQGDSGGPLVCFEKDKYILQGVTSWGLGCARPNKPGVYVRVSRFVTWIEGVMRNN

SMILES	Ki (Plasminogen)	Ki (Prothrombin)	Ki (Trypsin)	Ki (Tryptase)	Vmax / Km [1]
N=C(N)c1ccc(NC(=O)CC2CCN(C(=O)O[C@H]3CCC[C@@H](OC(=O)N4CCN(C(=O)NCCC5CCNCC5)CC4)CCC3)CC2)cc1	293 µM	52.9 µM	21.1 µM	0.0089 µM	–
N=C(N)c1ccc(C(=O)NCC2CCN(C(=O)O[C@H]3CCC[C@@H](OC(=O)N4CCN(C(=O)CCCC5CCNCC5)CC4)CCC3)CC2)cc1	320 µM	31.9 µM	37.4 µM	0.0164 µM	–
N=C(N)c1ccc(CNC(=O)N2CCN(C(=O)O[C@H]3CCC[C@@H](OC(=O)N4CCN(C(=O)NCc5ccc(C(=N)N)cc5)CC4)CCC3)CC2)cc1	–	–	25 µM	0.0087 µM	–
N=C(N)c1ccc(CC(=O)N2CCN(C(=O)O[C@H]3CCC[C@@H](OC(=O)N4CCN(C(=O)NCCC5CCNCC5)CC4)CCC3)CC2)cc1	> 1000 µM	94.4 µM	63.1 µM	0.0067 µM	–
N=C(N)c1ccc(CNC(=O)N2CCN(C(=O)O[C@H]3CCC[C@@H](OC(=O)N4CCN(C(=O)NCCC5CCNCC5)CC4)CCC3)CC2)cc1	287 µM	111 µM	47.2 µM	0.00091 µM	–
N=C(N)c1ccc(S(=O)(=O)NCC2CCN(C(=O)O[C@H]3CCC[C@@H](OC(=O)N4CCN(C(=O)NCCC5CCNCC5)CC4)CCC3)CC2)cc1	> 1000 µM	> 1000 µM	16.8 µM	0.028 µM	–
COC(=O)NC(=N)c1ccc(CNC(=O)N2CCN(C(=O)O[C@H]3CCC[C@@H](OC(=O)N4CCN(C(=O)NCCC5CCNCC5)CC4)CCC3)CC2)cc1	> 1000 µM	561 µM	554 µM	0.0406 µM	–
N=C(N)c1ccc(CNC(=O)N2CCN(C(=O)O[C@H]3CCC[C@@H](OC(=O)N4CCN(C(=O)CCCC5CCNCC5)CC4)CCC3)CC2)cc1	310 µM	102 µM	52.1 µM	0.00112 µM	–

Next, values leading:

Ki (Plasminogen)	Ki (Prothrombin)	Ki (Trypsin)	Ki (Tryptase)	Vmax / Km [1]	SMILES
> 1000 µM	> 1000 µM	> 1000 µM	0.112 µM	–	NCC1CCN(C(=O)NCCCCNC(=O)OCc2ccc(COC(=O)NCCCCNC(=O)N3CCC(CN)CC3)cc2)CC1
> 1000 µM	> 1000 µM	515 µM	0.024 µM	1870	NCC1CCN(C(=O)NCC2CCN(C(=O)OCc3ccc(COC(=O)N4CCC(CNC(=O)N5CCC(CN)CC5)CC4)cc3)CC2)CC1
0.006 µM	42.2 µM	4.4 µM	–	–	N=C(N)c1ccc(C(=O)NCC2CCN(C(=O)OCc3ccc(COC(=O)N4CCC(CNC(=O)c5ccc(C(=N)N)cc5)CC4)cc3)CC2)cc1
> 1000 µM	386 µM	466 µM	0.155 µM	–	N=C(N)N1CCC(CNC(=O)CNC(=O)OCc2ccc(COC(=O)NCC(=O)NCC3CCN(C(=N)N)CC3)cc2)CC1
> 1000 µM	423 µM	> 1000 µM	0.11 µM	–	N=C(N)N1CCC(CCNC(=O)CNC(=O)OCc2ccc(COC(=O)NCC(=O)NCCC3CCN(C(=N)N)CC3)cc2)CC1
279 µM	41.2 µM	38.8 µM	0.016 µM	–	N=C(N)c1ccc(C(=O)NCC2CCN(C(=O)O[C@H]3CCC[C@@H](OC(=O)N4CCN(C(=O)NCCC5CCNCC5)CC4)CCC3)CC2)cc1
62.2 µM	20.8 µM	4.67 µM	0.00085 µM	–	N=C(N)c1ccc(C(=O)NCC2CCN(C(=O)O[C@H]3CCC[C@@H](OC(=O)N4CCC(CNC(=O)c5ccc(C(=N)N)cc5)CC4)CCC3)CC2)cc1
